Data on two compounds can be found in article PMC11167047 (Cell Death Discovery, 2024).

Holding throughout (test): kinome screen (33PanQinase)
Common to all, as to type: biochemical

One assay deals with T1, NLK (Homo sapiens, UniProt Q9UBE8).
T1 construct: purchased Reaction Biology Europe GmbH (formerly ProQinase)
T1 sequence (Q9UBE8 1-527): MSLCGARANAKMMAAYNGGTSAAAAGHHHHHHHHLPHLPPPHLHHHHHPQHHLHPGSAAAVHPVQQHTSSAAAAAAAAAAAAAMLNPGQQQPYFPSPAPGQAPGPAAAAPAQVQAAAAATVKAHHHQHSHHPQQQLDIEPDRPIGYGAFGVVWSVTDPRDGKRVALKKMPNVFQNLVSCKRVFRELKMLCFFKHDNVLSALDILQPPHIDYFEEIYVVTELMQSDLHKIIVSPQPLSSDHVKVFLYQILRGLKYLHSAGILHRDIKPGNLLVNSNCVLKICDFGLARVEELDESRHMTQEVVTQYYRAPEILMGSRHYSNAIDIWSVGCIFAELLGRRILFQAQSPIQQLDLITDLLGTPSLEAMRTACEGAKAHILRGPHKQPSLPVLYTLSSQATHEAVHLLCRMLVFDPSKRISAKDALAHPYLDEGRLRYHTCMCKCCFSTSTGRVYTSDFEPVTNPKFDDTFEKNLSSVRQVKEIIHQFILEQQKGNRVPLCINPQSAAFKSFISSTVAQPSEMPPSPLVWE
As for the experimental part:
(§1) The Kinome Screening was performed by Reaction Biology Europe GmbH (http://reactionbiology.com; Freiburg i. Br., Germany).

Another assay deals with T2, LIMK1 (Homo sapiens, UniProt P53667).
T2 construct: purchased Reaction Biology Europe GmbH (formerly ProQinase)
As for the experimental part:
as §1

The next assay deals with T3, PRK1 (Homo sapiens, UniProt Q16512).
T3 construct: purchased Reaction Biology Europe GmbH (formerly ProQinase)
The method, then:
as §1

The next assay deals with T4, KIT (Homo sapiens, UniProt P10721).
T4 construct: purchased Reaction Biology Europe GmbH (formerly ProQinase)
As for the experimental part: as §1

For another assay, the target named is T5, PBK (Homo sapiens, UniProt Q96KB5).
T5 construct: purchased Reaction Biology Europe GmbH (formerly ProQinase)
T5 sequence (Q96KB5 1-322): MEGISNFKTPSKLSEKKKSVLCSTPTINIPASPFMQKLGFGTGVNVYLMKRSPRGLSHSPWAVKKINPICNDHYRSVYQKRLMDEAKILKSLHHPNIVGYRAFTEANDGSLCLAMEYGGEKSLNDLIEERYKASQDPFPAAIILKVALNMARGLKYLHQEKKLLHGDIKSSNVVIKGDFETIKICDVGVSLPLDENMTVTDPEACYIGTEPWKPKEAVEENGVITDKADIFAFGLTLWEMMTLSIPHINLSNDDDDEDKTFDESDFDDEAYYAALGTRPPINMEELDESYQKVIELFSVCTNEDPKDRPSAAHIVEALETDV
The method, then: as §1

The next assay addresses T6, CAMK4 (Homo sapiens, UniProt Q16566).
T6 construct: purchased Reaction Biology Europe GmbH (formerly ProQinase)
T6 sequence (Q16566 1-473): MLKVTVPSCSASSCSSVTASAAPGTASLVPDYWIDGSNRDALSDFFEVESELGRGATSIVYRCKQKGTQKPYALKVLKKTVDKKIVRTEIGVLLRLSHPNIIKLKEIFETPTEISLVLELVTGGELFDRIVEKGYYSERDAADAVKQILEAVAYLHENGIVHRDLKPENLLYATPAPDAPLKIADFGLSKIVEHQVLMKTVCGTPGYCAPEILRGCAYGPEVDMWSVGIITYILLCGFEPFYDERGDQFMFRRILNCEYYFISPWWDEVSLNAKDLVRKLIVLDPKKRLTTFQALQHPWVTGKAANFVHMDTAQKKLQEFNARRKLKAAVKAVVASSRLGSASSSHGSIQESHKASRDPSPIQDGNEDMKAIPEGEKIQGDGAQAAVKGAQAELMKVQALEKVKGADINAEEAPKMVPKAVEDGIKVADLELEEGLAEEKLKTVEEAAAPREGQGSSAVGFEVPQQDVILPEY
The method, then:
as §1

In the next assay the target is T7, PKCν (Homo sapiens, UniProt O94806).
T7 construct: purchased Reaction Biology Europe GmbH (formerly ProQinase)
T7 sequence (O94806 1-890): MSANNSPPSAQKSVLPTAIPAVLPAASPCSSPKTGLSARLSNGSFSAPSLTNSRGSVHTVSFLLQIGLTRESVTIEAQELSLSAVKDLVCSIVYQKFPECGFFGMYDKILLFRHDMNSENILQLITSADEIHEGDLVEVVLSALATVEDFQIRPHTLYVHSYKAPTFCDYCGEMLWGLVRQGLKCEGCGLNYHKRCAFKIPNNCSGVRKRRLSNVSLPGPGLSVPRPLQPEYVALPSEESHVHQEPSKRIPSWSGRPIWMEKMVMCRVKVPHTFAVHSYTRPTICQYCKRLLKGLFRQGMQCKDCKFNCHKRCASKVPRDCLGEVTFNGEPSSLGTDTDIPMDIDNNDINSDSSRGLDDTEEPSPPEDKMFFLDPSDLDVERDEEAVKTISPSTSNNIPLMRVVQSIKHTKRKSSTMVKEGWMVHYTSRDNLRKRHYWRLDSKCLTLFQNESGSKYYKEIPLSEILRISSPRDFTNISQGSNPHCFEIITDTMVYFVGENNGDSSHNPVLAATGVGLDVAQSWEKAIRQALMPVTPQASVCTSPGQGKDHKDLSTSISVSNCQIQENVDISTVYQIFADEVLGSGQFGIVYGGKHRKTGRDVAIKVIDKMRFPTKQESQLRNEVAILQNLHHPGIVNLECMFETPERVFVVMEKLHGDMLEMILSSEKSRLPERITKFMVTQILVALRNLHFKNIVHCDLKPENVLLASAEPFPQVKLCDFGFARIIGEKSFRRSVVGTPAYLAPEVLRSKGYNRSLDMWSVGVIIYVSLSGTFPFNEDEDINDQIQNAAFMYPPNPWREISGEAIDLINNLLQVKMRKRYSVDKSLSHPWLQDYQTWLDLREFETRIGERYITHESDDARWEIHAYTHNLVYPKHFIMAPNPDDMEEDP
The method, then: as §1

Structures are written as SMILES.

T3 sequence (Q16512 whole entry): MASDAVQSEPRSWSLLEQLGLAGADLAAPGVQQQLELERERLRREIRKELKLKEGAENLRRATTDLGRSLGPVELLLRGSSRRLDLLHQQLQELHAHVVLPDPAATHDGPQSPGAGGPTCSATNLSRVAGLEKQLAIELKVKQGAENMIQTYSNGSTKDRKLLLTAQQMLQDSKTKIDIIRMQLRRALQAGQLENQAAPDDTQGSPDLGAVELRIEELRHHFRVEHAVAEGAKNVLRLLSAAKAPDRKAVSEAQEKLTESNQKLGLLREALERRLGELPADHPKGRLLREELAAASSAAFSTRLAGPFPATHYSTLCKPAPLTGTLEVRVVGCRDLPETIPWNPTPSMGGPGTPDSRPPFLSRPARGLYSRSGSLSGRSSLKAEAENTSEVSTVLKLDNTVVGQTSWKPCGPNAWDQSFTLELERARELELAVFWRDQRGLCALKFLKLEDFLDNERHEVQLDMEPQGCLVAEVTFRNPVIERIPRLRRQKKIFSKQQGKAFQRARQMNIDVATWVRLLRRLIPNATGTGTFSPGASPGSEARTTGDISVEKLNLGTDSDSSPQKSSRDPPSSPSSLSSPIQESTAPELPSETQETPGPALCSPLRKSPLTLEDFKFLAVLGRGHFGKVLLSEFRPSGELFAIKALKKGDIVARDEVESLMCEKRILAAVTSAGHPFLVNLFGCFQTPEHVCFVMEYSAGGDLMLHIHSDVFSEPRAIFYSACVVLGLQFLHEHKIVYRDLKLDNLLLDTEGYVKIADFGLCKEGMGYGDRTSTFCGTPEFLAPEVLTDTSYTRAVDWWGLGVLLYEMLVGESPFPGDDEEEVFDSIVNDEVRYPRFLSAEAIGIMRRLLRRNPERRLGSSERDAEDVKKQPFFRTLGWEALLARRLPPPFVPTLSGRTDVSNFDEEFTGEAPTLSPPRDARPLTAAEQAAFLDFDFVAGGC
T4 sequence (P10721 26-976): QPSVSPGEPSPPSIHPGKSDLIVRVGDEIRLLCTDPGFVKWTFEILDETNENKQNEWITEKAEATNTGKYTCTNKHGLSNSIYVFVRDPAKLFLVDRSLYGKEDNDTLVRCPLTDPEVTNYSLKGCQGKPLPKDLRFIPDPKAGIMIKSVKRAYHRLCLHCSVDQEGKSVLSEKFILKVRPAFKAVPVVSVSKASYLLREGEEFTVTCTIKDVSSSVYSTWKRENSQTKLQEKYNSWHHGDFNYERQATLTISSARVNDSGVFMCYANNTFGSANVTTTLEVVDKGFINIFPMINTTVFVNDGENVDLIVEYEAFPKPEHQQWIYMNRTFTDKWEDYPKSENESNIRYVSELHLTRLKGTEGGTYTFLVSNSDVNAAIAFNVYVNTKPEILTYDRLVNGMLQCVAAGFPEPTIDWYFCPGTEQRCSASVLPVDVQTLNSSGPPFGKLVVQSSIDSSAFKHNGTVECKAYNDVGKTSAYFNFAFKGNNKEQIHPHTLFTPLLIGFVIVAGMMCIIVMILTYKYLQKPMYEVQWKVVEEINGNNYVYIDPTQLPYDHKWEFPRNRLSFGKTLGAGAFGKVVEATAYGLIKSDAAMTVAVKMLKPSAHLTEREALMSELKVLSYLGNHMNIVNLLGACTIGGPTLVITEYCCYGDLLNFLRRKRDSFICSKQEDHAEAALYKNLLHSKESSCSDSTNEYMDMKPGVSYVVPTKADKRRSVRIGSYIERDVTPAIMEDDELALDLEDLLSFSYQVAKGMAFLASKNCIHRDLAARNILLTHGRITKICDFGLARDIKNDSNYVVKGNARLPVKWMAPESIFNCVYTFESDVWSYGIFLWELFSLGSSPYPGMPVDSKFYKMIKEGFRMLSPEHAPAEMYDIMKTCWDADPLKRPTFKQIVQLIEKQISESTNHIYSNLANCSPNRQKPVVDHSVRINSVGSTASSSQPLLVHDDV
T2 sequence (P53667 whole entry): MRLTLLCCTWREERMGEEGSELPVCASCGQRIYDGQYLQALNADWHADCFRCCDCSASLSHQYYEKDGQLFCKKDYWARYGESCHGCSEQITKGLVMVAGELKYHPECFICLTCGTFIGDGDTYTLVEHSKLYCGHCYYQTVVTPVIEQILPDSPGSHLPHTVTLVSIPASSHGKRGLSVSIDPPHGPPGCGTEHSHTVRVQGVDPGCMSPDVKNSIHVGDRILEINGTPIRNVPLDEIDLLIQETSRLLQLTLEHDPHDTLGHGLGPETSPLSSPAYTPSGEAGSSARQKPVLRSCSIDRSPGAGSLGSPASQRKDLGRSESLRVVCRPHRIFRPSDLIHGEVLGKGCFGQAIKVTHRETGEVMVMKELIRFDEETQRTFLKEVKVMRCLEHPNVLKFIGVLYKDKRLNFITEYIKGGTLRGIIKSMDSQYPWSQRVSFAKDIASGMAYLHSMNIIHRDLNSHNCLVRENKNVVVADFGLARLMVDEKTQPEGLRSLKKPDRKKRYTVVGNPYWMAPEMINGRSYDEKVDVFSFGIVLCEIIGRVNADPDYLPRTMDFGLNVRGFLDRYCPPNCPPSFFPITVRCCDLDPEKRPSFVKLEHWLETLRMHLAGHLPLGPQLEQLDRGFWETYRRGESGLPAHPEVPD

Take `c1ccc(CNc2cc(-c3c[nH]c4ncccc34)ccn2)cc1` [meriolin 36]: the residual kinase activity at NLK (0.3 µM) is on record as 78 % of control; on NLK (3 µM), 29 % of control; on LIMK1 (0.3 µM), 9 % of control; at LIMK1 (3 µM), 1 % of control; on PRK1 (0.3 µM), 17 % of control; on PRK1 (3 µM), 3 % of control. Also, the residual kinase activity at KIT (0.3 µM) is 89 % of control; at KIT (3 µM), 46 % of control; on PBK (0.3 µM) it was 69 % of control; at PBK (3 µM), 80 % of control; at CAMK4 (0.3 µM), 92 % of control; on CAMK4 (3 µM), 73 % of control. Moreover, the residual kinase activity was 62 % of control on PKCν (0.3 µM) and 17 % of control at PKCν (3 µM).

For `COc1ccnc2[nH]cc(-c3cc(N)nc(N)c3)c12` [meriolin 16], the residual kinase activity on NLK (0.03 µM) is reported as 96 % of control; on NLK (0.3 µM), 81 % of control; at LIMK1 (0.03 µM), 10 % of control; on LIMK1 (0.3 µM), 3 % of control; on PRK1 (0.03 µM), 84 % of control; on PRK1 (0.3 µM), 35 % of control. For the same compound, the residual kinase activity is given as 70 % of control at KIT (0.03 µM); 96 % of control on KIT (0.3 µM); 95 % of control at PBK (0.03 µM); 90 % of control at PBK (0.3 µM); 96 % of control at CAMK4 (0.03 µM); 92 % of control on CAMK4 (0.3 µM). Also, the residual kinase activity on PKCν (0.03 µM) is on record as 89 % of control; at PKCν (0.3 µM), 32 % of control.
